Reference: patent US8575158B2, “1-phenyl-substituted heterocyclyl derivatives and their use as prostaglandin D2 receptor modulators” (Actelion Pharmaceuticals Ltd., priority 2010, dated 2013)

Target: T1, hCRTH2 receptor (Homo sapiens, UniProt Q9Y5Y4)
T1 construct: expressed in transfected cells; host or cells: HEK293
T1 sequence (Q9Y5Y4 1-395): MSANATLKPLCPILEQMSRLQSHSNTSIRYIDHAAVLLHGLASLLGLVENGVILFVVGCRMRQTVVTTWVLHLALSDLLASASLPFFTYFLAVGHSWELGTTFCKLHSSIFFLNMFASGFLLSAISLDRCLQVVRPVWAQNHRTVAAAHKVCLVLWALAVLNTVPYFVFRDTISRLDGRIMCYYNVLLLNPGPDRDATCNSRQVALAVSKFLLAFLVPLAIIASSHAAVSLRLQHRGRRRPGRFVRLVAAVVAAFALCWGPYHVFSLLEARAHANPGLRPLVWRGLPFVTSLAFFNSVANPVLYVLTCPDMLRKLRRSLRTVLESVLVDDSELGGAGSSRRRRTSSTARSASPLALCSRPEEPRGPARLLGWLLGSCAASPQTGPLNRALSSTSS
Experiment: Radioligand displacement assay (3H-PGD2) on hCRTH2 receptor membranes
Assay type: binding
Details: antagonistic activity, 3H-PGD2 radioligand displacement, HEK293-hCRTH2 membranes

Row | Structure (SMILES) | IC50 [nM]
1 | O=C(O)COc1ccc(Cl)cc1[C@@H]1c2ccc(F)cc2CCN1C(=O)OCc1cccc(F)c1 [Example 353, (S)-1-(2-Carboxymethoxy-5-chloro-phenyl)-6-fluoro-3,4-dihydro-1H-isoquinoline-2-carboxylic acid 3-fluoro-benzyl ester] | 2.79
2 | O=C(O)COc1ccc(Cl)cc1[C@@H]1c2ccc(F)cc2CCN1C(=O)OCn1ncc2ccccc21 [Example 347, (S)-1-(2-Carboxymethoxy-5-chloro-phenyl)-6-fluoro-3,4-dihydro-1H-isoquinoline-2-carboxylic acid indazol-1-ylmethyl ester] | 0.87
3 | Cc1cc(COC(=O)N2CCc3cc(F)ccc3[C@H]2c2cc(Cl)ccc2OCC(=O)O)on1 [Example 330, (S)-1-(2-Carboxymethoxy-5-chloro-phenyl)-6-fluoro-3,4-dihydro-1H-isoquinoline-2-carboxylic acid 3-methyl-isoxazol-5-ylmethyl ester] | 10.6
4 | O=C(O)COc1ccc(Cl)cc1[C@@H]1c2ccc(F)cc2CCN1C(=O)OCc1ccncn1 [Example 333, (S)-1-(2-Carboxymethoxy-5-chloro-phenyl)-6-fluoro-3,4-dihydro-1H-isoquinoline-2-carboxylic acid pyrimidin-4-ylmethyl ester] | 45.7
5 | O=C(O)COc1ccc(Cl)cc1C1c2cc(F)ccc2CCN1C(=O)OCc1ccccc1 (racemic) [Example 365] | 37.8

The next lines start with the values.

Row | IC50 [nM] | Structure (SMILES)
6 | 93.8 | O=C(O)COc1ccc(Cl)cc1C1c2ccccc2CCN1C(=O)[C@@H]1C[C@H]1c1cccc(C(F)(F)F)c1 (mixture of isomers) [Example 426]
7 | 11.2 | O=C(O)COc1ccc(Cl)cc1C1c2ccc(F)c(F)c2CN1C(=O)OCc1ccccc1 (racemic) [Example 559]
8 | 17 | O=C(O)COc1ccc(Cl)cc1C1c2ccccc2CCN1C(=O)NCc1ccc(F)cc1 (racemic) [Example 494]
9 | 273 | Cc1nn(CCC(=O)N2CCc3cc(F)ccc3[C@H]2c2cc(Cl)ccc2OCC(=O)O)c2c(F)cccc12 [Example 392]
10 | 25.8 | O=C(O)COc1ccc(Cl)cc1C1c2ccccc2CN1C(=O)CCn1ncc2cccc(F)c21 (single isomer, unassigned) [Example 537, (4-Chloro-2-{2-[3-(7-fluoro-indazol-1-yl)-propionyl]-2,3-dihydro-1H-isoindol-1-yl}-phenoxy)-acetic acid]
11 | 51.2 | O=C(O)COc1ccc(Cl)cc1C1c2ccccc2CCN1C(=O)CCn1ccc2cc(Cl)ccc21 (racemic) [Example 385]
12 | 130 | O=C(O)COc1ccc(Cl)cc1C1c2ccccc2CCN1C(=O)CCN1Cc2ccccc2C1=O (racemic) [Example 445]
13 | 154 | Cc1nn(CCC(=O)N2CCc3cc(F)ccc3[C@H]2c2cc(Cl)ccc2OCC(=O)O)c2cc(F)ccc12 [Example 393]
14 | 11.7 | O=C(O)COc1ccc(Cl)cc1C1c2ccccc2CN1C(=O)NCCc1ccccc1 (racemic) [Example 556]
15 | 2.21 | O=C(O)COc1ccc(Cl)cc1C1c2ccc(F)cc2CCN1C(=O)[C@@H]1C[C@H]1c1ccccc1C(F)(F)F (mixture of isomers) [Example 429]
16 | 17.4 | O=C(O)COc1ccc(Cl)cc1C1c2ccccc2CN1C(=O)NCc1cccc(F)c1 (racemic) [Example 553]
17 | 982 | Cc1nn(CCC(=O)N2Cc3ccccc3C2c2cc(Cl)ccc2OCC(=O)O)c2ccccc12 (single isomer, unassigned) [Example 545, (4-Chloro-2-{2-[3-(3-methyl-indazol-1-yl)-propionyl]-2,3-dihydro-1H-isoindol-1-yl}-phenoxy)-acetic acid]
18 | 24.1 | O=C(O)COc1ccc(Cl)cc1C1c2ccccc2CCN1C(=O)NCc1ccccc1F (racemic) [Example 495]
19 | 127 | CCn1c(C)c(CCC(=O)N2Cc3ccccc3C2c2cc(Cl)ccc2OCC(=O)O)c2ccccc21 (racemic) [Example 508]

Same assay, conditions: antagonistic activity; 3H-PGD2 displacement on HEK293-hCRTH2 membrane fragments

Row | IC50 [nM] | Structure (SMILES)
20 | 3.96 | O=C(O)COc1ccc(Cl)cc1[C@@H]1c2ccccc2CCN1C(=O)OCc1cnccn1 [Example 282, (S)-1-(2-Carboxymethoxy-5-chloro-phenyl)-3,4-dihydro-1H-isoquinoline-2-carboxylic acid pyrazin-2-ylmethyl ester]
21 | 41.2 | Cc1cccc(CCCC(=O)N2CCc3ccccc3C2c2cc(Cl)ccc2OCC(=O)O)c1 (racemic) [Example 110, (±)-{4-Chloro-2-[2-(4-m-tolyl-butyryl)-1,2,3,4-tetrahydro-isoquinolin-1-yl]-phenoxy}-acetic acid]
22 | 7.56 | O=C(O)COc1ccc(Cl)cc1[C@@H]1c2ccccc2CCN1C(=O)OCc1ccncn1 [Example 283, (S)-1-(2-Carboxymethoxy-5-chloro-phenyl)-3,4-dihydro-1H-isoquinoline-2-carboxylic acid pyrimidin-4-ylmethyl ester]
23 | 15.5 | O=C(O)COc1ccc(F)cc1C1c2ccccc2CCN1C(=O)[C@@H]1C[C@H]1c1ccccc1 (mixture of isomers) [Example 67, (±)-{4-Fluoro-2-[2-(trans-2-phenyl-cyclopropanecarbonyl)-1,2,3,4-tetrahydro-isoquinolin-1-yl]-phenoxy}-acetic acid]
24 | 6.87 | O=C(O)COc1ccc(Cl)cc1C1c2ccccc2CCN1C(=O)OCc1ccccc1 (racemic) [Example 21, (±)-1-(2-Carboxymethoxy-5-chloro-phenyl)-3,4-dihydro-1H-isoquinoline-2-carboxylic acid benzyl ester]
25 | 151 | CC1(C)CN(C(=O)OCc2ccccc2)C(c2cc(Cl)ccc2OCC(=O)O)c2ccccc21 (racemic) [Example 180, (±)-1-(2-Carboxymethoxy-5-chloro-phenyl)-4,4-dimethyl-3,4-dihydro-1H-isoquinoline-2-carboxylic acid benzyl ester]
26 | 443 | C[C@H](Oc1ccc(F)cc1[C@@H]1c2ccccc2CCN1C(=O)OCc1ccccc1)C(=O)O [Example 28, (S)-1-[2-((S)-1-Carboxy-ethoxy)-5-fluoro-phenyl]-3,4-dihydro-1H-isoquinoline-2-carboxylic acid benzyl ester]
27 | 19.6 | COc1ccc2onc(CC(=O)N3CCc4ccccc4C3c3cc(Cl)ccc3OCC(=O)O)c2c1 (racemic) [Example 101, (±)-(4-Chloro-2-{2-[2-(5-methoxy-benzo[d]isoxazol-3-yl)-acetyl]-1,2,3,4-tetrahydro-isoquinolin-1-yl}-phenoxy)-acetic acid]
28 | 0.94 | O=C(O)COc1ccc(Cl)cc1C1c2ccccc2CCN1C(=O)OCc1ccccc1Cl (racemic) [Example 164]
29 | 735 | O=C(O)COc1ccc(F)cc1C1c2ccccc2CCN1C(=O)CCN1C(=O)COc2ccc(Cl)cc21 (racemic) [Example 56, (±)-(2-{2-[3-(6-Chloro-3-oxo-2,3-dihydro-benzo[1,4]oxazin-4-yl)-propionyl]-1,2,3,4-tetrahydro-isoquinolin-1-yl}-4-fluoro-phenoxy)-acetic acid]
30 | 18.8 | O=C(O)COc1ccc(F)cc1C1c2ccc(F)c(F)c2CCN1C(=O)OCc1ccccc1 (racemic) [Example 14, (±)-1-(2-Carboxymethoxy-5-fluoro-phenyl)-5,6-difluoro-3,4-dihydro-1H-isoquinoline-2-carboxylic acid benzyl ester]
31 | 8.31 | Cc1cc(COC(=O)N2CCc3ccccc3C2c2cc(Cl)ccc2OCC(=O)O)no1 (racemic) [Example 270]
32 | 32.5 | O=C(O)COc1ccc(Cl)cc1C1c2cccc(F)c2CCN1C(=O)[C@@H]1C[C@H]1c1ccccc1 (relative stereo) [Example 117, {4-Chloro-2-[5-fluoro-2-(trans-2-phenyl-cyclopropanecarbonyl)-1,2,3,4-tetrahydro-isoquinolin-1-yl]-phenoxy}-acetic acid]
33 | 42.7 | COc1ccccc1CCCC(=O)N1CCc2ccccc2C1c1cc(F)ccc1OCC(=O)O (racemic) [Example 149, (±)-(4-Fluoro-2-{2-[4-(2-methoxy-phenyl)-butyryl]-1,2,3,4-tetrahydro-isoquinolin-1-yl}-phenoxy)-acetic acid]
34 | 45.8 | O=C(O)COc1ccc(Cl)cc1C1c2ccccc2CCN1C(=O)CCc1ccccc1C(F)(F)F (racemic) [Example 90, (±)-(4-Chloro-2-{2-[3-(2-trifluoromethyl-phenyl)-propionyl]-1,2,3,4-tetrahydro-isoquinolin-1-yl}-phenoxy)-acetic acid]
35 | 30.1 | O=C(O)COc1ccc(F)cc1C1c2ccccc2CCN1C(=O)CCc1c[nH]c2ccccc12 (racemic) [Example 51, (±)-{4-Fluoro-2-[2-(3-1H-indol-3-yl-propionyl)-1,2,3,4-tetrahydro-isoquinolin-1-yl]-phenoxy}-acetic acid]
36 | 14.1 | Cc1ccc(COC(=O)N2CCc3ccccc3C2c2cc(Cl)ccc2OCC(=O)O)c(C)n1 (racemic) [Example 256]
37 | 21 | C[C@@H](Oc1ccc(Cl)cc1C1c2ccccc2CCN1C(=O)OCc1ccccc1)C(=O)O (stereo partly drawn) [Example 220, 1-[2-((R)-1-Carboxy-ethoxy)-5-chloro-phenyl]-3,4-dihydro-1H-isoquinoline-2-carboxylic acid benzyl ester]

Same assay, conditions: radioligand displacement (3H-PGD2), hCRTH2 receptor membranes; antagonistic activity

Row | IC50 [nM] | Structure (SMILES)
38 | 355 | O=C(OCc1ccccc1)N1CCc2ccccc2C1c1cc(Cl)ccc1OCc1nnn[nH]1 (centres unmarked) [Example 570, (γ)-1-[5-Chloro-2-(1H-tetrazol-5-ylmethoxy)-phenyl]-3,4-dihydro-1H-isoquinoline-2-carboxylic acid benzyl ester]
